Numbers after ± are expanded uncertainties.
Assays:
[1] = molar enthalpy of vaporization or sublimation; conditions: 298.15 K, Calvet Microcalorimeter
[2] = Crystal; DTA

molar enthalpy ([1]; Liquid) [kcal/mol]	Normal melting temperature [2] [°C]	molar enthalpy ([1]; Crystal) [kcal/mol]	Structure (SMILES)
13.5 ± 0.574			CC(C)(C)c1cccc(C(C)(C)C)n1 [2,6-di-tert-butylpyridine]
	68 ± 2	18.7 ± 0.813	CC(C)(C)c1cc(C(C)(C)C)nc(C(C)(C)C)c1 [pyridine, 2,4,6-tris(1,1-dimethylethyl)-]
13 ± 0.621			CC(C)(C)c1ccncc1 [4-(1,1-dimethylethyl)pyridine]
